assay: Bilayer photographic element: interimage (Cg/Cb+g) and relative green sensitivity; settings: Table II, IDIR-2 in blue layer; IEM or CIEM at 7.2×10^-3 mmol/m^2
Method: Bilayer photographic elements were prepared by coating the following layers on a cellulose triacetate film support (coverages are in g/m^2). Unless otherwise noted, all comparative and inventive compounds were dispersed in twice their own weight of N,N-dibutyllauramide:
Layer 1 (Antihalation Layer): black colloidal elemental silver at 0.34 and gelatin at2.41.
Layer 2 (Receiver Layer): gelatin at 2.79, CDIR-2 at 0.03, coupler M-1 (dispersed as described previously) added at 0.045, comparison material (CIEM) or IEM added at 7.2×10^-3 mmol/m^2 (this corresponds to 1.67 mmol per mole silver as AgBr or 0.96 mmol per mole of silver) dispersed in twice its own weight of N,N-dibutyllauramide and 0.81 green sensitized AgIBr tabular emulsion.
Layer 3 (Interlayer): gelatin at 0.64, ILS-1 at 0.11 and FD-1 at 0.11.
Layer 4 (Causer Layer): gelatin at 2.79, coupler Y-1 at 0.91, 0.79 blue sensitized AgIBr tabular emulsion and the DIR at 0.11 mmol/m^2.
Layer 5 (Overcoat): gelatin at 2.79 and 0.02 bis-vinylsulfonemethylether.
Samples of each element were given a stepped exposure of either green light only or blue and green light combined and processed in the KODAK FLEXICOLOR (C-41) process as described in British Journal of Photography Annual, 1988, pp196-198. Contrast of the elements was determined using the maximum slope between any two density points. In this test, the ratio of the contrast of the green only exposure to the contrast of the green of a blue and green exposure (Cg /Cb+g) is a measure of the interimage. A higher ratio means more inhibition originating from the blue and affecting the green record.
Another set of bilayer experiments were generated in a similar manner to show the effect of IEM laydown (as mmol per mol silver) and DIR variations.

**Q.** Which “Cg /Cb+g (interimage ratio)” value does the source give for CCCCCCCC(=O)Nc1ccc2[nH]nnc2c1 [CIEM-1] here?
**A.** The value was 1.25.

**Q.** Which “Cg /Cb+g (interimage ratio)” value does the source give for CCCCC(CC)CNC(=O)c1ccc2[nH]nnc2c1 (stereo not shown) [CIEM-2] here?
**A.** The value was 1.26.

**Q.** For CCCCCCCCCOC(=O)c1nc[nH]n1 [CIEM-3], which “Cg /Cb+g (interimage ratio)” value is on record?
**A.** The value was 1.23.

**Q.** With CCCCCCSCCOC(=O)c1nc[nH]n1 [CIEM-4] as the molecule, how does the “Cg /Cb+g (interimage ratio)” value read?
**A.** The value was 1.19.

**Q.** Which “Cg /Cb+g (interimage ratio)” value does the source give for CCCCCCCCc1nc2ccccc2[nH]1 [CIEM-5] here?
**A.** Its value is 1.19.

**Q.** For O=S(=O)(NCCc1ccccc1)c1ccc2[nH]nnc2c1 [CIEM-6], which “Cg /Cb+g (interimage ratio)” value is on record?
**A.** The value was 1.24.

**Q.** For CCCSCCCOC(=O)c1ccc2[nH]nnc2c1 [CIEM-7], which “Cg /Cb+g (interimage ratio)” value is on record?
**A.** The value was 1.26.

**Q.** Which “Cg /Cb+g (interimage ratio)” value does the source give for CCCCCCCCCCOC(=O)CSc1nnc[nH]1 [CIEM-8] here?
**A.** The value was 1.22.

**Q.** With O=C(Nc1cccc(Oc2ccccc2)c1)c1ccc2[nH]nnc2c1 [CIEM-9] as the molecule, how does the “Cg /Cb+g (interimage ratio)” value read?
**A.** Its value is 1.30.

**Q.** With O=C(c1ccc2[nH]nnc2c1)N1CCCc2ccccc21 [CIEM-10] as the molecule, how does the “Cg /Cb+g (interimage ratio)” value read?
**A.** Its value is 1.18.

**Q.** For CCCCc1ccc(NC(=O)c2ccc3[nH]nnc3c2)cc1 [CIEM-11], which “Cg /Cb+g (interimage ratio)” value is on record?
**A.** The value was 1.26.

**Q.** With O=C(Oc1ccccc1)c1ccc2[nH]nnc2c1 [CIEM-12] as the molecule, how does the “Cg /Cb+g (interimage ratio)” value read?
**A.** Its value is 1.24.

**Q.** For CCC(C)(C)c1ccc(OCCCCC(=O)Nc2ccc3c(c2)nnn3C(=O)N2CCOCC2)c(C(C)(C)CC)c1 [CIEM-13], which “Cg /Cb+g (interimage ratio)” value is on record?
**A.** Its value is 1.30.

**Q.** Which “Cg /Cb+g (interimage ratio)” value does the source give for CCC(C)(C)c1ccc(OCCCCC(=O)Nc2ccc3c(c2)nnn3C)c(C(C)(C)CC)c1 [CIEM-14] here?
**A.** The value was 1.31.

**Q.** For CCCCCCCCCCCCCCCc1cccc(OCCCCNC(=O)c2ccc3[nH]nnc3c2)c1 [CIEM-15], which “Cg /Cb+g (interimage ratio)” value is on record?
**A.** Its value is 1.26.

**Q.** Which “Cg /Cb+g (interimage ratio)” value does the source give for CCCCCCCCCCCCSc1nc2ccccc2[nH]1 [CIEM-16] here?
**A.** The value was 1.27.

**Q.** Which “Cg /Cb+g (interimage ratio)” value does the source give for CCC(C)(C)c1ccc(OCCCCNC(=O)CSc2nc3ccccc3[nH]2)c(C(C)(C)CC)c1 [CIEM-17] here?
**A.** Its value is 1.23.

**Q.** With CCCCCCCCCC(=O)Nc1ccc2[nH]nnc2c1 [IEM-B] as the molecule, how does the “Cg /Cb+g (interimage ratio)” value read?
**A.** Its value is 1.39.

**Q.** With CCCCCCCCCCCC(=O)Nc1ccc2[nH]nnc2c1 [IEM-C] as the molecule, how does the “Cg /Cb+g (interimage ratio)” value read?
**A.** The value was 1.64.

**Q.** For CCCCCCCCCCC(Oc1ccc(S(=O)(=O)c2ccc(O)cc2)cc1)C(=O)Nc1ccc2[nH]nnc2c1 (stereo not shown) [IEM-D], which “Cg /Cb+g (interimage ratio)” value is on record?
**A.** The value was 1.49.

**Q.** With CCCCCCCCCCCCSc1nc[nH]n1 [IEM-H] as the molecule, how does the “Cg /Cb+g (interimage ratio)” value read?
**A.** Its value is 1.44.

same assay, conditions: bilayer, --N--H group removed

**Q.** Which “interimage effect” value does the source give for CCC(C)(C)c1ccc(OCCCCC(=O)Nc2ccc3c(c2)nnn3C(=O)N2CCOCC2)c(C(C)(C)CC)c1 [CIEM-13] here?
**A.** Its value is “the effect is insufficient”.

**Q.** With CCC(C)(C)c1ccc(OCCCCC(=O)Nc2ccc3c(c2)nnn3C)c(C(C)(C)CC)c1 [CIEM-14] as the molecule, how does the “interimage effect” value read?
**A.** The value was “the effect is insufficient”.

assay: Single layer film element contrast (gamma) reduction by DI(A)R couplers, KODAK FLEXICOLOR C-41; settings: DIR tested at 0.055 mmol/m^2, relative to non-inhibitor containing check
Excerpt: The mild inhibitor fragments that are used in this invention are defined as those that cause less than a 45% gamma reduction, or more preferably less than a 40% gamma reduction, relative to a non-inhibitor containing check when coated as the following single layer film element on a cellulose triacetate film support (coverages are in g/m^2):
Overcoat Gelatin at 2.79 and 0.02 bis-vinylsulfonemethylether
Imaging Layer Gelatin at 2.79
Magenta Image Coupler M-1 (dispersed at 80% by
weight in tricresyl phosphate and 20% by weight
N,N-dibutyl-2-butoxy-5-t-octylaniline) at 0.692
DIR being tested at 0.055 mmol/m^2 ( dispersed in twice
its weight in N,N-dibutyllauramide)
Green sensitized AgBrI at 1.08
Samples of each element were given a stepped exposure and processed in the KODAK FLEXICOLOR™ (C-41) process as described in British Journal of Photography Annual, 1988, pp 196-198. Contrast of the elements was determined using the maximum slope between any two density points.

**Q.** Which “% Contrast Reduction” value does the source give for CCCCCCCCCCCCCCOc1ccccc1NC(=O)c1cc(Oc2ccc(CSc3nnnn3Cc3ccc(OC)cc3)cc2[N+](=O)[O-])c2ccccc2c1O [CDIR-1] here?
**A.** The value was -55.4%.

**Q.** With CCC(Oc1ccc(C(C)(C)CC)cc1C(C)(C)CC)C(=O)Nc1ccc(N2N=C(N3CCCC3)C(Sc3nnnn3-c3ccccc3)C2=O)cc1 (stereo not shown) [CDIR-2] as the molecule, how does the “% Contrast Reduction” value read?
**A.** The value was -67.1%.

**Q.** With CCCCCCCCCCCCCCOc1ccccc1NC(=O)c1cc(Oc2ccc([N+](=O)[O-])cc2CN(C(=O)Sc2nnnn2-c2ccccc2)C(C)C)c2ccccc2c1O [CDIR-3] as the molecule, how does the “% Contrast Reduction” value read?
**A.** Its value is -75.7%.

**Q.** Which “% Contrast Reduction” value does the source give for CCCCCCCCCCCCCCOc1ccccc1NC(=O)c1cc(Oc2ccc(CSc3nnnn3-c3ccccc3)cc2[N+](=O)[O-])c2ccccc2c1O [CDIR-4] here?
**A.** Its value is -77.1%.

**Q.** Which “% Contrast Reduction” value does the source give for CCCCCCCCCCCCCCOc1ccccc1NC(=O)c1cc(Oc2ccc(CSc3nnnn3-c3ccccc3)cc2[N+](=O)[O-])c2ccccc2c1O [CDIR-5] here?
**A.** The value was -70.5%.

**Q.** With CCCCCCCCCCCCCCOc1ccccc1NC(=O)c1cc(Sc2nnnn2-c2ccccc2)c2ccccc2c1O [CDIR-6] as the molecule, how does the “% Contrast Reduction” value read?
**A.** Its value is -75.4%.

**Q.** For CCCCCCCCCCCCCCCCS(=O)(=O)Nc1ccc(Cl)c(NC(=O)C(Oc2ccc([N+](=O)[O-])cc2CN(CC)C(=O)Sc2nnnn2-c2ccccc2)C(=O)C(C)(C)C)c1 (stereo not shown) [CDIR-7], which “% Contrast Reduction” value is on record?
**A.** The value was -63.9%.

**Q.** Which “% Contrast Reduction” value does the source give for CCCCCCOC(=O)c1nn(C2C(=O)N(c3ccc(NC(=O)C(CC)Oc4ccc(C(C)(C)CC)cc4C(C)(C)CC)cc3)N=C2C)nc1C (stereo not shown) [CDIR-8] here?
**A.** The value was -49.2%.

**Q.** With CCCCCCCCCCC(Oc1ccc(S(=O)(=O)c2ccc(O)cc2)cc1)C(=O)Nc1ccc(N2N=C(C)C(n3nc(C)c(C(=O)OCCCCCC)n3)C2=O)cc1 (stereo not shown) [CDIR-9] as the molecule, how does the “% Contrast Reduction” value read?
**A.** Its value is -50.1%.

**Q.** For CCCCCCCCCCCCCCCCS(=O)(=O)Nc1ccc(Cl)c(NC(=O)C(C(=O)C(C)(C)C)n2nc(C)c(C(=O)OCCCCCC)n2)c1 (stereo not shown) [CDIR-10], which “% Contrast Reduction” value is on record?
**A.** The value was -53.8%.

**Q.** For CCCCCCCCCCCCCCCCS(=O)(=O)Nc1ccc(Cl)c(NC(=O)C(C(=O)C(C)(C)C)n2ncc(SCC(=O)OCCCCCC)n2)c1 (stereo not shown) [CDIR-11], which “% Contrast Reduction” value is on record?
**A.** The value was -58.6%.

**Q.** For CCCCCCCCCCCCCCCCS(=O)(=O)Nc1cc(CSc2nnnn2CC(=O)OCCC)ccc1Oc1cc(C(N)=O)c(O)c2ccccc12 [IDIR-1], which “% Contrast Reduction” value is on record?
**A.** The value was -34.5%.

**Q.** With CCCCCCCCCCCCCCCCS(=O)(=O)Nc1ccc(Cl)c(NC(=O)C(Oc2ccc([N+](=O)[O-])cc2CN(CC)C(=O)Sc2nnnn2CC(=O)OCCC)C(=O)C(C)(C)C)c1 (stereo not shown) [IDIR-2] as the molecule, how does the “% Contrast Reduction” value read?
**A.** Its value is -25.3%.

**Q.** With CCCCCCCCCCCCOc1ccc(C)cc1NC(=O)c1cc(Oc2ccc(CSc3nnnn3CC(=O)OCCC)cc2[N+](=O)[O-])c2ccccc2c1O [IDIR-3] as the molecule, how does the “% Contrast Reduction” value read?
**A.** Its value is -24.5%.

**Q.** With CCCOC(=O)Cn1nnnc1SC1C(=O)N(c2ccc(NC(=O)C(CC)Oc3ccc(C(C)(C)CC)cc3C(C)(C)CC)cc2)N=C1N1CCCC1 (stereo not shown) [IDIR-4] as the molecule, how does the “% Contrast Reduction” value read?
**A.** Its value is -22.6%.

**Q.** Which “% Contrast Reduction” value does the source give for CCCCCCCCCCCCOC(=O)C(C)OC(=O)c1ccc(Cl)c(NC(=O)C(C(=O)Nc2cc(C(=O)OC(C)C(=O)OCCCCCCCCCCCC)ccc2Cl)n2nnc3cc(Cl)c(Cl)cc32)c1 (stereo not shown) [IDIR-7] here?
**A.** The value was -20.0%.

**Q.** Which “% Contrast Reduction” value does the source give for CCCCCCCCCCCCCCOc1ccccc1NC(=O)c1cc(Sc2nnnn2CC)c2ccccc2c1O [IDIR-8] here?
**A.** Its value is -2.4%.
